Data set [1] relates to Human immunodeficiency virus 1. Put plainly: Antiviral activity against HIV-1 IIIB infected in human MT4 cells assessed as reduction in viral replication by MTT assay. It counts as functional, organism-based. Conditions: Human immunodeficiency virus 1, IIIB. (Tetrazolium assays rely on reduction of a dye to a coloured formazan, in cell work by metabolically active cells.)

The subject of data set [2] is Human immunodeficiency virus 1. Put plainly: Antiviral activity against HIV-1 ROD infected in human MT4 cells assessed as reduction in viral replication by MTT assay. Format: functional, organism-based.
Data set [3] in a line: Cytotoxicity against human MT4 cells assessed as reduction on cell growth by MTT assay. It counts as toxicity, cell-based.
Data set [4] is described as follows: Selectivity index, ratio of CC50 for cytotoxicity against human MT4 cells to EC50 of Anti-HIV activity against HIV-1 IIIB infected in human MT4 cells. The following applies: read-out: Ratio CC50/EC50. It counts as toxicity, cell-based.
For data set [5], the system named is Human immunodeficiency virus 1. Put plainly: Antiviral activity against HIV-1 L100I mutant infected in human MT4 cells assessed as reduction in viral replication by MTT assay. It counts as functional, organism-based. The following applies: Human immunodeficiency virus 1, L100I mutant.
Data set [6] has as its system Human immunodeficiency virus 1. The data set can be described thus: Antiviral activity against HIV-1 K103N mutant infected in human MT4 cells assessed as reduction in viral replication by MTT assay. Format: functional, organism-based. Conditions: Human immunodeficiency virus 1, K103N mutant.
The test system of data set [7] is Human immunodeficiency virus 1. Put plainly: Antiviral activity against HIV-1 Y181C mutant infected in human MT4 cells assessed as reduction in viral replication by MTT assay. Format: functional, organism-based. The following applies: Human immunodeficiency virus 1, Y181C mutant.
For data set [8], the system named is Human immunodeficiency virus 1. The data set can be described thus: Antiviral activity against HIV-1 Y188L mutant infected in human MT4 cells assessed as reduction in viral replication by MTT assay. Format: functional, organism-based. The following applies: Human immunodeficiency virus 1, Y188L mutant.
Data set [9] concerns Human immunodeficiency virus 1. Put plainly: Antiviral activity against HIV-1 E138K mutant infected in human MT4 cells assessed as reduction in viral replication by MTT assay. It counts as functional, organism-based. Conditions: Human immunodeficiency virus 1, E138K mutant.
For data set [10], the system named is Human immunodeficiency virus 1. The data set can be described thus: Antiviral activity against HIV-1 F227L-V106A mutant infected in human MT4 cells assessed as reduction in viral replication by MTT assay. Format: functional, organism-based. The following applies: Human immunodeficiency virus 1, F227L-V106A mutant.
For data set [11], the system named is Human immunodeficiency virus 1. Put plainly: Antiviral activity against HIV-1 K103N-Y181C mutant infected in human MT4 cells assessed as reduction in viral replication by MTT assay. It counts as functional, organism-based. Conditions: Human immunodeficiency virus 1, K103N-Y181C mutant.
Data set [12] concerns the target Human immunodeficiency virus type 1 reverse transcriptase (Human immunodeficiency virus 1, UniProt Q72547). Put plainly: Inhibition of wild type HIV-1 Reverse transcriptase.

pEC50, pIC50: −log10 of the molar value. Bounds are passed on as bounds.

As to `Cc1cccc(-c2ccc(Oc3c(C(F)(F)F)ccn(Cc4n[nH]c(=O)n4C)c3=O)c(Cl)c2)c1`, the pEC50 in data set [1] and in data set [2] was < 4.46 each time. Besides, in data set [3], the CC50 (commonly the concentration that lowers cell viability or growth by half) was determined as 24.7 µM. Besides, the selectivity ratio in [4] is < 1.
Take `Cn1c(Cn2ccc(C(F)(F)F)c(Oc3ccc(-c4ccc(C#N)cc4)cc3)c2=O)n[nH]c1=O`: the pEC50 (in general, −log10 of the EC50, conventionally taken in molar units) in [1] is 5.21; in [2] it was < 4.46; in data set [5] it was 5.11; in data set [6] it was 4.57; in data set [7], 4.41; in [8], < 4.46. The pEC50 in [9] was 4.62; in data set [10], < 4.46; in [11] it was < 4.46. For the same compound, the CC50 in data set [3] turned out to be 74.3 µM. In addition, in data set [4], the selectivity ratio is 11.9. In addition, the pIC50 (usually the IC50 on a negative log10 scale, so that one unit is a factor of ten) in data set [12] was 4.80.
As for `Cn1c(Cn2ccc(C(F)(F)F)c(Oc3ccc(-c4cccc(C#N)c4)cc3)c2=O)n[nH]c1=O`, the pEC50 was 5.32 in data set [1]; < 4.46 in [2]; 4.97 in data set [5]; 4.84 in [6]; 4.41 in data set [7]; < 4.46 in data set [8]. The pEC50 in [9] is 4.91; in data set [10], < 4.46; in data set [11], < 4.46. In addition, the CC50 in data set [3] was found to be 114 µM. Also, the selectivity ratio in [4] was found to be 23.7. In data set [12], the pIC50 is 4.84.
Consider `Cc1cc(Oc2c(C(F)(F)F)ccn(Cc3n[nH]c(=O)n3C)c2=O)ccc1-c1ccc(F)cc1`, for which the pEC50 in data set [1] and in data set [2] was < 4.46 each time. The CC50 in [3] came out at 23.7 µM. Moreover, in [4], the selectivity ratio is ≤ 4.
Turning to `Cc1ccc(-c2ccc(Oc3c(C(F)(F)F)ccn(Cc4n[nH]c(=O)n4C)c3=O)c(Cl)c2)cc1`, the pEC50 in data set [1] and in [2] was < 4.46 each time. The CC50 in [3] stood at 50.9 µM. Also, the selectivity ratio in data set [4] is < 1.
For `Cn1c(Cn2ccc(C(F)(F)F)c(Oc3ccc(-c4cc(F)cc(C#N)c4)cc3)c2=O)n[nH]c1=O`, the pEC50 is 4.82 in data set [1]; < 4.46 in [2]; 5.05 in data set [5]; 4.81 in data set [6]; 4.37 in data set [7]; < 4.46 in data set [8]. Besides, the pEC50 in data set [9] is 4.86; in data set [10], < 4.46; in data set [11] it was < 4.46. The CC50 in data set [3] was found to be 90.5 µM. Also, the selectivity ratio in data set [4] was 5.95. In data set [12], this compound showed a pIC50 of 5.09.
Consider `Cc1ccc(-c2ccc(Oc3c(C(F)(F)F)ccn(Cc4n[nH]c(=O)n4C)c3=O)cc2F)cc1`, for which the pEC50 was 5.09 in [1] and < 4.46 in data set [2]. Also, in data set [3], the CC50 was determined as 28.2 µM. In addition, the selectivity ratio in [4] was determined as 3.52.
Turning to `Cc1ccc(-c2cc(F)c(Oc3c(C(F)(F)F)ccn(Cc4n[nH]c(=O)n4C)c3=O)c(F)c2)cc1`, the pEC50 in data set [1] and in [2] was < 4.46 each time. In addition, in [3], the CC50 is 20.5 µM. Also, the selectivity ratio in data set [4] is < 1.
Take `Cn1c(Cn2ccc(C(F)(F)F)c(Oc3ccc(-c4ccc(F)c(C#N)c4)cc3)c2=O)n[nH]c1=O`: the pEC50 in data set [1] is 5.14; in data set [2], < 4.46. The CC50 in [3] amounted to 49.1 µM. Besides, the selectivity ratio in data set [4] came to 6.75.
For the compound `Cc1cccc(-c2ccc(Oc3c(C(F)(F)F)ccn(Cc4n[nH]c(=O)n4C)c3=O)c(C)c2)c1`, the pEC50 in data set [1] and in data set [2] was < 4.46 in each case. For the same compound, the CC50 in data set [3] worked out at 19.1 µM. Moreover, in [4], the selectivity ratio is ≤ 2.
For the compound `Cn1c(Cn2ccc(C(F)(F)F)c(Oc3c(F)cc(-c4ccc(F)cc4)cc3F)c2=O)n[nH]c1=O`, the pEC50 in [1] and in [2] was < 4.46 each time. The CC50 in data set [3] came to 18.2 µM. Moreover, in data set [4], the selectivity ratio is ≤ 2.
On to `Cc1cccc(-c2ccc(Oc3c(C(F)(F)F)ccn(Cc4n[nH]c(=O)n4C)c3=O)c(F)c2)c1`, for which the pEC50 in data set [1] and in data set [2] was < 4.46 in each case. In addition, the CC50 in [3] was determined as 20.3 µM. Besides, the selectivity ratio in data set [4] is ≤ 1.
Regarding `Cn1c(Cn2ccc(C(F)(F)F)c(Oc3ccc(-c4cccc(F)c4)cc3)c2=O)n[nH]c1=O`, the pEC50 in [1] and in data set [2] was < 4.46 each time. Moreover, in [3], the CC50 came out at 48.3 µM. The selectivity ratio in data set [4] was < 1.
With `Cn1c(Cn2ccc(C(F)(F)F)c(Oc3ccc(-c4cccc(F)c4)cc3F)c2=O)n[nH]c1=O`, the pEC50 in data set [1] and in data set [2] was < 4.46 in each case. Besides, the CC50 in data set [3] turned out to be 46.8 µM. Moreover, in data set [4], the selectivity ratio was ≤ 1.
`Cc1ccc(-c2ccc(Oc3c(C(F)(F)F)ccn(Cc4n[nH]c(=O)n4C)c3=O)cc2)cc1`: the pEC50 in [1] and in [2] was < 4.46 throughout. Besides, the CC50 in [3] turned out to be 25 µM. Further, the selectivity ratio in data set [4] is < 1.
Take `Cc1ccc(-c2ccc(Oc3c(C(F)(F)F)ccn(Cc4n[nH]c(=O)n4C)c3=O)cc2C)cc1`: the pEC50 in data set [1] and in [2] was < 4.46 throughout. Further, the CC50 in data set [3] amounted to 26.6 µM. In addition, the selectivity ratio in data set [4] was < 1.
Take `Cn1c(Cn2ccc(C(F)(F)F)c(Oc3ccc(-c4cccc(F)c4)cc3Cl)c2=O)n[nH]c1=O`: the pEC50 in data set [1] and in data set [2] was < 4.46 each time. Also, the CC50 in [3] worked out at 20.1 µM. In addition, in [4], the selectivity ratio was < 1.
Take `Cn1c(Cn2ccc(C(F)(F)F)c(Oc3ccc(-c4ccc(F)cc4)cc3Cl)c2=O)n[nH]c1=O`: the pEC50 in data set [1] and in [2] was < 4.46 throughout. Moreover, the CC50 in data set [3] turned out to be 16.7 µM. Besides, the selectivity ratio in [4] is < 1.
Consider `Cc1cccc(-c2ccc(Oc3c(C(F)(F)F)ccn(Cc4n[nH]c(=O)n4C)c3=O)cc2F)c1`, for which the pEC50 was 5.34 in data set [1]; < 4.46 in data set [2]; 5.32 in data set [5]; < 4.46 in data set [6]; < 4.46 in [7]; < 4.46 in data set [8]. Also, the pEC50 in data set [10] is 5.12; in data set [11], < 4.46. For the same compound, the CC50 in [3] was 27.7 µM. In [4], the selectivity ratio is 6.05. This compound also showed a negative-log IC50 (pIC50) in data set [12] of 4.75.
Regarding `Cc1ccc(-c2ccc(Oc3c(C(F)(F)F)ccn(Cc4n[nH]c(=O)n4C)c3=O)c(F)c2)cc1`, the pEC50 in data set [1] and in [2] was < 4.46 throughout. Also, the CC50 in data set [3] amounted to 38 µM. Also, the selectivity ratio in data set [4] was < 1.
For the compound `Cn1c(Cn2ccc(C(F)(F)F)c(Oc3ccc(-c4ccc(F)cc4)cc3F)c2=O)n[nH]c1=O`, the pEC50 in data set [1] and in data set [2] was < 4.46 each time. Moreover, the CC50 in data set [3] came out at 24.1 µM. Moreover, the selectivity ratio in [4] was < 1.
For the compound `Cc1cccc(-c2cc(F)c(Oc3c(C(F)(F)F)ccn(Cc4n[nH]c(=O)n4C)c3=O)c(F)c2)c1`, the pEC50 in data set [1] and in data set [2] was < 4.46 in each case. Besides, the CC50 in data set [3] was 20.9 µM. Also, the selectivity ratio in data set [4] is < 1.
`Cn1c(Cn2ccc(C(F)(F)F)c(Oc3ccc(-c4ccc(F)cc4)c(F)c3)c2=O)n[nH]c1=O`: the pEC50 in [1] was 5.05; in data set [2], < 4.46. The CC50 in [3] is 25.6 µM. Moreover, in data set [4], the selectivity ratio came to 2.87.
With `Cc1ccc(-c2ccc(Oc3c(C(F)(F)F)ccn(Cc4n[nH]c(=O)n4C)c3=O)c(C)c2)cc1`, the pEC50 in data set [1] and in data set [2] was < 4.46 throughout. In addition, in [3], the CC50 came out at 16.9 µM. The selectivity ratio in [4] was ≤ 1.
For the compound `Cn1c(Cn2ccc(C(F)(F)F)c(Oc3ccc(-c4cccc(C#N)c4)c(F)c3)c2=O)n[nH]c1=O`, the pEC50 in data set [1] was 6.60; in [2], < 4.46; in [5], 6.15; in data set [6] it was 5.91; in [7], 5.32; in data set [8], 4.33. In addition, the pEC50 was 6.10 in [9], < 4.46 in data set [10] and 4.51 in [11]. For the same compound, the CC50 in [3] was found to be 104 µM. In addition, in data set [4], the selectivity ratio amounted to 424. The pIC50 in [12] was 6.35.
Turning to `Cn1c(Cn2ccc(C(F)(F)F)c(Oc3ccc(-c4ccc(F)cc4)cc3)c2=O)n[nH]c1=O`, the pEC50 in data set [1] and in [2] was < 4.46 each time. The CC50 in [3] was 36.5 µM. In addition, the selectivity ratio in data set [4] was < 1.
In the case of `Cc1cccc(-c2ccc(Oc3c(C(F)(F)F)ccn(Cc4n[nH]c(=O)n4C)c3=O)cc2)c1`, the pEC50 in data set [1] and in [2] was < 4.46 throughout. The CC50 in data set [3] turned out to be 32.3 µM. In addition, the selectivity ratio in [4] is < 1.
Regarding `Cc1cc(C#N)cc(C)c1Oc1nc(Nc2ccc(C#N)cc2)nc(N)c1Br` [ETRAVIRINE], the pEC50 is 7.54 in [1], < 4.46 in data set [2], 7.74 in data set [8] and 7.51 in data set [11]. The CC50 in data set [3] is > 4.6 µM. For the same compound, the selectivity ratio in data set [4] is > 1600.
